Data published in patent US10221163B2 (priority 2015, dated 2019).
pIC50: −log10 of the molar value. Read-outs that look alike come from different tables or passages of the source.

Experiments:
IMP-1 = IMP-1 (Serratia marcescens, UniProt P52699); assay: biochemical; type: biochemical; conditions: fluorescence assay, CCF2-FA substrate, 2 pM enzyme, 2 hours at 25° C.; read-out: IMP-1 IC50
How it was run: (§1)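 Enzyme activity was measured by fluorescence using CCF2-FA, a cephalosporin-linked 7-hydroxycoumarin/fluorescein substrate, with inhibitor, metallo-β-lactamase and substrate incubated together for 2 hours at 25° C. IC50 came from a 4-parameter fit of inhibition versus log inhibitor concentration.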

NDM-1 = NDM-1 (Klebsiella pneumoniae, UniProt C7C422); assay: biochemical; type: biochemical; conditions: fluorescence assay, CCF2-FA substrate, 1 pM enzyme, 2 hours at 25° C.; read-out: NDM-1 IC50
How it was run: as §1

VIM-1 = VIM-1 (Pseudomonas aeruginosa (strain ATCC 15692 / DSM 22644 / CIP 104116 / JCM 14847 / LMG 12228 / 1C / PRS 101 / PAO1), UniProt A0A0F7KYQ8); assay: biochemical; conditions: CCF2-FA substrate, 30 pM enzyme, 2 hours at 25° C.
How it was run: as §1

[1] = system: Escherichia coli expressing NDM-1 (CLB30005, CLB30016); type: cell-based; conditions: with imipenem 1 μg/ml; for Escherichia coli expressing NDM-1 (CLB30016) MITC95: 95% inhibition of bacterial growth; for Escherichia coli MITC95: NDM-1 strain, 95% inhibition of growth
How it was run: (§2)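 Clinical strains grown overnight on blood agar at 35°C, colonies suspended in saline, diluted 1:100 into 1.1×CAMHB. Test compound titrated with imipenem at 1 μg/ml; incubated 22–24 h at 35°C, growth read by absorbance.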

[2] = system: Klebsiella pneumoniae expressing VIM-1 (IHMA599644); type: cell-based; conditions: for Klebsiella pneumoniae expressing VIM-1 (IHMA599644) MITC95: with imipenem 1 μg/ml, 95% inhibition of bacterial growth; for Klebsiella pneumoniae MITC95: VIM-1 strain IHMA599644, with imipenem 1 μg/ml, 95% inhibition of growth
How it was run: as §2

[3] = system: Serratia marcescens expressing IMP-1 (CL5741); type: cell-based; conditions: for Serratia marcescens expressing IMP-1 (CL5741) MITC95: with imipenem 1 μg/ml, 95% inhibition of bacterial growth; for Serratia marcescens MITC95: IMP-1 strain CL5741, with imipenem 1 μg/ml, 95% inhibition of growth
How it was run: as §2

[4] = system: Pseudomonas aeruginosa efflux+ (MB9798), IMP-1; type: cell-based; conditions: concentration restoring susceptibility to imipenem at 2 μg/mL in the presence of a class A, C, D serine β-lactamase inhibitor closely related to relebactam
How it was run: (§3)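 Steps: add fixed imipenem and/or ceftazidime (usually CLSI breakpoint) and fixed AmpC-directed class A/C inhibitor to microbroth MIC wells; titrate MBL inhibitor; record concentration regaining susceptibility for each PAO1-derived strain; divide efflux+ by efflux− value.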

[5] = system: Pseudomonas aeruginosa efflux− (MB9799), IMP-1; type: cell-based; conditions: concentration restoring susceptibility to imipenem at 2 μg/mL in the presence of a class A, C, D serine β-lactamase inhibitor closely related to relebactam
How it was run: as §3

[6] = system: Pseudomonas aeruginosa MB9798 vs MB9799; conditions: ratio MITC95 PA_9798/MITC95 PA_9799
How it was run: as §3

[7] = fluorescence assay, read-out: VIM-1 IC50

NDM-1, sequence (C7C422 whole entry, looked up, species assumed): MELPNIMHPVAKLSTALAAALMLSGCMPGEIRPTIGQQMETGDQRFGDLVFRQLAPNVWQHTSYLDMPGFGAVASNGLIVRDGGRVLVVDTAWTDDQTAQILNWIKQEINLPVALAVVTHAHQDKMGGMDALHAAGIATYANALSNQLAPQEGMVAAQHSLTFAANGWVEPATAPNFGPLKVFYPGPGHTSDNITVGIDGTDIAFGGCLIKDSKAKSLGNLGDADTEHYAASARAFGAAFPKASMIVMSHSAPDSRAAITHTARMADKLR
IMP-1, sequence (P52699 whole entry, looked up, species assumed): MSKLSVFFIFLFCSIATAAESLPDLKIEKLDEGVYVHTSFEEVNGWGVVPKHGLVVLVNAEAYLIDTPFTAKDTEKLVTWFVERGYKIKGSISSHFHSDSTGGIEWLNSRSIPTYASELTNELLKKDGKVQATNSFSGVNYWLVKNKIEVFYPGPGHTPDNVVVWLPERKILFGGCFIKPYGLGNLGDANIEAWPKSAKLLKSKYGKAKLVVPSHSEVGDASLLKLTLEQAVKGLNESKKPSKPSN

SMILES	pIC50 (IMP-1)	pIC50 (NDM-1)	pIC50 (VIM-1; [7])	Escherichia coli expressing NDM-1 (CLB30016) MITC95 [1]	Klebsiella pneumoniae expressing VIM-1 (IHMA599644) MITC95 [2]	Serratia marcescens expressing IMP-1 (CL5741) MITC95 [3]	P. aeruginosa expressing IMP-1, efflux + (MB9798) MITC95 [4]	P. aeruginosa expressing IMP-1, efflux − (MB9799) MITC95 [5]	Efflux ratio [6]	pIC50 (VIM-1; VIM-1 IC50, fluorescence assay)	Escherichia coli MITC95 [1]	Klebsiella pneumoniae MITC95 [2]	Serratia marcescens MITC95 [3]
NCCNS(=O)(=O)c1ccc(-c2cccc3nonc23)c(-c2nn[nH]n2)c1S(N)(=O)=O [Example 239]	8.98	9.36	9.95	0.7813 µM	3.125 µM	1.563 µM	6.25 µM	0.7813 µM	8.00	–	–	–	–
Nc1nc2c(-c3ccc(S(=O)(=O)N[C@@H]4CNC[C@@H]4N)c(S(N)(=O)=O)c3-c3nn[nH]n3)cccc2[nH]1 [Example 240]	9.13	10.25	–	0.1953 µM	1.563 µM	0.7813 µM	0.7813 µM	0.7813 µM	1.00	9.77	–	–	–
Nc1nc2c(-c3ccc(S(=O)(=O)N[C@H]4CNC[C@H]4N)c(S(N)(=O)=O)c3-c3nn[nH]n3)cccc2[nH]1 [Example 241]	9.13	10.27	–	0.5208 µM	1.302 µM	1.042 µM	0.651 µM	0.7813 µM	0.83	9.74	–	–	–
CNc1ccc(-c2ccc(S(=O)(=O)N[C@@H]3CCNC3)c(S(N)(=O)=O)c2-c2nn[nH]n2)cn1 [Example 242]	9.80	10.21	10.08	0.7813 µM	1.563 µM	0.7813 µM	0.7813 µM	0.7813 µM	1.00	–	–	–	–
CNc1ccc(-c2ccc(S(=O)(=O)NCCN)c(S(N)(=O)=O)c2-c2nn[nH]n2)cn1 [Example 243]	9.51	9.56	9.71	–	–	–	0.7813 µM	0.7813 µM	1.00	–	0.3906 µM	1.563 µM	0.3906 µM
CN([C@H]1CCNC1)S(=O)(=O)c1ccc(-c2cccc3[nH]c(N)nc23)c(-c2nn[nH]n2)c1S(N)(=O)=O [Example 244, (S)-4-(2-amino-1H-benzo[d]imidazol-7-yl)-N1-methyl-N1-(pyrrolidin-3-yl)-3-(1H-tetrazol-5-yl)benzene-1,2-disulfonamide]	8.18	8.88	8.17	–	–	–	1.563 µM	0.7813 µM	2.00	–	0.7813 µM	1.563 µM	1.563 µM
NCCN1CC[C@@H](NS(=O)(=O)c2ccc(-c3cccc4[nH]c(N)nc34)c(-c3nn[nH]n3)c2S(N)(=O)=O)C1 [Example 246, (R)-4-(2-amino-1H-benzo[d]imidazol-4-yl)-N1-(1-(2-aminoethyl)pyrrolidin-3-yl)-3-(2H-tetrazol-5-yl)benzene-1,2-disulfonamide]	9.07	10.39	–	–	–	–	1.563 µM	0.7813 µM	2.00	9.92	0.7813 µM	1.563 µM	1.563 µM
NCC(CO)(CO)NS(=O)(=O)c1ccc(-c2cccc3[nH]c(N)nc23)c(-c2nn[nH]n2)c1S(N)(=O)=O [Example 247, 4-(2-amino-1H-benzo[d]imidazol-4-yl)-N-1-(1-amino-3-hydroxy-2-(hydroxymethyl)propan-2-yl)-3-(2H-tetrazol-5-yl)benzene-1,2-disulfonamide]	9.30	10.48	9.83	–	–	–	1.563 µM	0.7813 µM	2.00	–	0.7813 µM	3.125 µM	1.563 µM
Nc1nc2c(-c3ccc(S(=O)(=O)NC[C@]4(N)CCNC4)c(S(N)(=O)=O)c3-c3nn[nH]n3)cccc2[nH]1 [Example 250, (S)-4-(2-amino-1H-benzo[d]imidazol-4-yl)-N1-((3-aminopyrrolidin-3-yl)methyl)-3-(2H-tetrazol-5-yl)benzene-1,2-disulfonamide]	9.29	10.47	9.70	–	–	–	0.7813 µM	0.7813 µM	1.00	–	0.3906 µM	1.563 µM	0.7813 µM
Nc1nc2c(-c3ccc(S(=O)(=O)NC[C@@]4(N)CCNC4)c(S(N)(=O)=O)c3-c3nn[nH]n3)cccc2[nH]1 [Example 251, (R)-4-(2-amino-1H-benzo[d]imidazol-4-yl)-N1-((3-aminopyrrolidin-3-yl)methyl)-3-(2H-tetrazol-5-yl)benzene-1,2-disulfonamide]	9.12	10.25	9.71	–	–	–	0.7813 µM	0.7813 µM	1.00	–	0.7813 µM	1.563 µM	0.7813 µM
